Laboratory results taken from PubChem BioAssay (NCI).
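In this assay, cells in 96-well plates receive the compound at five concentrations for 48 hours. Endpoints are linearly interpolated between the surrounding concentrations. Abbreviation: GI50, concentration required for 50% inhibition of growth. TGI is the concentration that stops growth completely.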

Columns and labels:
Experiment in all cases: NCI tumour cell line growth inhibition, 48 h
MDA-MB-468 breast = system: MDA-MB-468 breast
SF-539 CNS = system: SF-539 CNS
OVCAR-5 ovarian = system: OVCAR-5 ovarian
EKVX NSCLC = system: EKVX NSCLC
UO-31 renal = system: UO-31 renal
OVCAR-4 ovarian = system: OVCAR-4 ovarian
OVCAR-8 ovarian = system: OVCAR-8 ovarian
PC-3 prostate = system: PC-3 prostate
A549 NSCLC = system: A549 NSCLC
NCI-H226 lung = system: NCI-H226 lung
SR leukemia = system: SR leukemia
SW-620 colon = system: SW-620 colon
NCI-H460 lung = system: NCI-H460 lung
LOX IMVI melanoma = system: LOX IMVI melanoma
HS 578T breast = system: HS 578T breast
RPMI-8226 leukemia = system: RPMI-8226 leukemia
ACHN renal = system: ACHN renal
RXF 393 renal = system: RXF 393 renal
A498 renal = system: A498 renal
KM12 colon = system: KM12 colon
U251 CNS = system: U251 CNS
MCF7 breast = system: MCF7 breast
IGROV1 ovarian = system: IGROV1 ovarian
786-0 renal = system: 786-0 renal
HT29 colon = system: HT29 colon
HL-60(TB) leukemia = system: HL-60(TB) leukemia
T-47D breast = system: T-47D breast
HCT-15 colon = system: HCT-15 colon
HOP-92 NSCLC = system: HOP-92 NSCLC
M14 melanoma = system: M14 melanoma
BT-549 breast = system: BT-549 breast
HCC-2998 colon = system: HCC-2998 colon
HCT-116 colon = system: HCT-116 colon
SNB-19 CNS = system: SNB-19 CNS
HOP-62 NSCLC = system: HOP-62 NSCLC
NCI-H23 lung = system: NCI-H23 lung
TK-10 renal = system: TK-10 renal
UACC-257 melanoma = system: UACC-257 melanoma
SN12C renal = system: SN12C renal
MOLT-4 leukemia = system: MOLT-4 leukemia
CCRF-CEM leukemia = system: CCRF-CEM leukemia
SK-MEL-5 melanoma = system: SK-MEL-5 melanoma
SK-OV-3 ovarian = system: SK-OV-3 ovarian
CAKI-1 renal = system: CAKI-1 renal
OVCAR-3 ovarian = system: OVCAR-3 ovarian
NCI/ADR-RES ovarian = system: NCI/ADR-RES ovarian
SF-295 CNS = system: SF-295 CNS
SK-MEL-2 melanoma = system: SK-MEL-2 melanoma
MDA-MB-231 breast = system: MDA-MB-231 breast
SK-MEL-28 melanoma = system: SK-MEL-28 melanoma
K-562 leukemia = system: K-562 leukemia
DU-145 prostate = system: DU-145 prostate
SNB-75 CNS = system: SNB-75 CNS
MDA-MB-435 = system: MDA-MB-435
SF-268 CNS = system: SF-268 CNS

O=C(N/N=C/c1ccc(Br)s1)c1[nH]c2ccc(Br)cc2c1-c1ccccc1
GI50 (MDA-MB-468 breast): 327 nM
TGI (MDA-MB-468 breast): 4890 nM

Cc1ccccc1NC(=O)c1cc2ccccc2cc1O
GI50 (MDA-MB-468 breast): 2640 nM
TGI (MDA-MB-468 breast): 7890 nM

COC(=O)Nc1nc2ccc(S(=O)(=O)c3ccc(NC(=O)Nc4cc(C(F)(F)F)ccc4F)cc3)cc2[nH]1
GI50 (MDA-MB-468 breast): > 25000 nM
TGI (MDA-MB-468 breast): > 25000 nM

CC1=NN(C(=O)c2nn(-c3ccc(Cl)cc3)cc2O)C(=O)C1
GI50 (MDA-MB-468 breast): 4920 nM
TGI (MDA-MB-468 breast): 97000 nM

O=c1[nH]nc(-c2ccccc2)c2c(-c3ccccc3)onc12
GI50 (MDA-MB-468 breast): 424 nM
TGI (MDA-MB-468 breast): > 100000 nM

Oc1ccc(O)c2c1C1(Cl)C(Cl)=C(Cl)C2(Cl)C1(Cl)Cl
GI50 (MDA-MB-468 breast): 3710 nM
TGI (MDA-MB-468 breast): 12800 nM

COc1ccc2c(c1)C=C1CSCC3=Cc4cc(OC)ccc4OC13O2
GI50 (MDA-MB-468 breast): 347 nM

C=C1C(=O)O[C@H]2[C@H]1CC/C(CNC(=O)/C=C/c1ccc(Cl)cc1Cl)=C\CC[C@@]1(C)O[C@@H]21
GI50 (MDA-MB-468 breast): 396 nM
TGI (MDA-MB-468 breast): 1470 nM

Cc1ccc(S(=O)(=O)Nc2cc(Sc3ccccc3)c(O)c3ccccc23)cc1
GI50 (MDA-MB-468 breast): 1380 nM
TGI (MDA-MB-468 breast): 3360 nM

COc1ccc(CN=C(N)N=C(N)N)cc1OC
GI50 (MDA-MB-468 breast): 47600 nM
TGI (MDA-MB-468 breast): 477000 nM

CCCN(CCC)S(=O)(=O)c1ccc(C(=O)O)cc1.CCCN(CCC)S(=O)(=O)c1ccc(C(=O)O)cc1.[Cl][Pt+2][Cl].[NH2-].[NH2-]
GI50 (SF-539 CNS): 289 nM
TGI (SF-539 CNS): > 33200 nM
GI50 (OVCAR-5 ovarian): 1440 nM
TGI (OVCAR-5 ovarian): > 100000 nM
GI50 (EKVX NSCLC): 8400 nM
TGI (EKVX NSCLC): > 100000 nM
GI50 (UO-31 renal): > 72600 nM
TGI (UO-31 renal): > 100000 nM
GI50 (OVCAR-4 ovarian): 4570 nM
TGI (OVCAR-4 ovarian): > 100000 nM
GI50 (OVCAR-8 ovarian): 1400 nM
TGI (OVCAR-8 ovarian): > 100000 nM
GI50 (PC-3 prostate): 2250 nM
TGI (PC-3 prostate): > 100000 nM
GI50 (A549 NSCLC): 2890 nM
TGI (A549 NSCLC): > 100000 nM
GI50 (NCI-H226 lung): 4040 nM
TGI (NCI-H226 lung): 99600 nM
GI50 (SR leukemia): 112 nM
TGI (SR leukemia): > 100000 nM
GI50 (SW-620 colon): 518 nM
TGI (SW-620 colon): > 100000 nM
GI50 (NCI-H460 lung): 151 nM
TGI (NCI-H460 lung): > 68600 nM
GI50 (LOX IMVI melanoma): 349 nM
TGI (LOX IMVI melanoma): > 45200 nM
GI50 (HS 578T breast): 13900 nM
TGI (HS 578T breast): > 100000 nM
GI50 (RPMI-8226 leukemia): 289 nM
GI50 (ACHN renal): 477 nM
TGI (ACHN renal): > 100000 nM
GI50 (RXF 393 renal): 425 nM
TGI (RXF 393 renal): 5080 nM
GI50 (A498 renal): 29600 nM
TGI (A498 renal): > 85400 nM
GI50 (KM12 colon): 2610 nM
TGI (KM12 colon): > 100000 nM
GI50 (U251 CNS): 995 nM
TGI (U251 CNS): > 84200 nM
GI50 (MCF7 breast): 149 nM
TGI (MCF7 breast): > 100000 nM
GI50 (IGROV1 ovarian): 3600 nM
TGI (IGROV1 ovarian): 24200 nM
GI50 (786-0 renal): 1440 nM
TGI (786-0 renal): > 100000 nM
GI50 (HT29 colon): 2760 nM
TGI (HT29 colon): > 100000 nM
GI50 (HL-60(TB) leukemia): 221 nM
TGI (HL-60(TB) leukemia): > 100000 nM
GI50 (T-47D breast): 349 nM
TGI (T-47D breast): > 100000 nM
GI50 (HCT-15 colon): > 100000 nM
TGI (HCT-15 colon): > 100000 nM
GI50 (HOP-92 NSCLC): 596 nM
TGI (HOP-92 NSCLC): > 21800 nM
GI50 (M14 melanoma): 1000 nM
TGI (M14 melanoma): > 100000 nM
GI50 (BT-549 breast): 369 nM
TGI (BT-549 breast): 1900 nM
GI50 (HCC-2998 colon): 926 nM
TGI (HCC-2998 colon): 9490 nM
GI50 (HCT-116 colon): 945 nM
TGI (HCT-116 colon): > 52000 nM
GI50 (SNB-19 CNS): 1600 nM
TGI (SNB-19 CNS): 60500 nM
GI50 (HOP-62 NSCLC): 653 nM
TGI (HOP-62 NSCLC): > 95000 nM
GI50 (NCI-H23 lung): 249 nM
TGI (NCI-H23 lung): 2810 nM
GI50 (TK-10 renal): > 100000 nM
TGI (TK-10 renal): > 100000 nM
GI50 (UACC-257 melanoma): 2130 nM
TGI (UACC-257 melanoma): > 100000 nM
GI50 (SN12C renal): 200 nM
TGI (SN12C renal): > 100000 nM
GI50 (MOLT-4 leukemia): 246 nM
TGI (MOLT-4 leukemia): > 100000 nM
GI50 (CCRF-CEM leukemia): 138 nM
GI50 (SK-MEL-5 melanoma): 476 nM
TGI (SK-MEL-5 melanoma): 1800 nM
GI50 (SK-OV-3 ovarian): 1580 nM
TGI (SK-OV-3 ovarian): 22000 nM
GI50 (CAKI-1 renal): 2270 nM
TGI (CAKI-1 renal): > 100000 nM
GI50 (OVCAR-3 ovarian): 1070 nM
TGI (OVCAR-3 ovarian): > 27000 nM
GI50 (NCI/ADR-RES ovarian): > 100000 nM
TGI (NCI/ADR-RES ovarian): > 100000 nM
GI50 (SF-295 CNS): 1640 nM
TGI (SF-295 CNS): > 100000 nM
GI50 (SK-MEL-2 melanoma): 2030 nM
TGI (SK-MEL-2 melanoma): 5210 nM
GI50 (MDA-MB-231 breast): 3150 nM
TGI (MDA-MB-231 breast): > 58300 nM
GI50 (SK-MEL-28 melanoma): 733 nM
TGI (SK-MEL-28 melanoma): > 24100 nM
GI50 (K-562 leukemia): 179 nM
TGI (K-562 leukemia): > 100000 nM
GI50 (DU-145 prostate): 351 nM
TGI (DU-145 prostate): > 100000 nM
GI50 (SNB-75 CNS): 666 nM
TGI (SNB-75 CNS): 13300 nM
GI50 (MDA-MB-435): 801 nM
TGI (MDA-MB-435): 2720 nM
GI50 (SF-268 CNS): 700 nM
TGI (SF-268 CNS): > 100000 nM
